Series [1] deals with various human tumor cells. As to the kind of experiment: In vitro activity of compound Nr. 54 on various human tumor cells. The series is classed as cell-based. As to the method: (§1) HepG2 cells plated at a density of 20,000 cells/ml in 12-well plastic dishes. Cultivation occured in Richters IMEM-ZO nutrient medium with 5% fetal calf serum (FCS) in a tissue culture incubator with a gas mixture of 5% CO2 and 95% air at a temperature of 37° C. One day after planting, the culture medium was aspirated from the cells and replaced by fresh medium which contained the respective concentrations of the test substances. For the individual concentrations and the controls without test substances, three-fold batches were done for each. Three days after the beginning of treatment, the medium was again renewed with the test compounds. After six days of substance incubation, the test was ended and the protein amount in the individual wells was determined with the sulforhodamin-B-method (according to P. Skehan et al: New Colorimetric Cytotoxicity Assay for Anticancer-Drug Screening. J. Natl. Cancer Inst. 82:1107-1112, 1990). The IC50-values (defined as that concentration in which the cell growth was inhibited by 50%) was taken from the dose-response curves and given as a comparative measurement for the activity of the test compounds.
The compounds of formula (I) and their salts permit a therapeutic use in malignant illnesses of humans and animals through their excellent inhibition of the growth of tumor cells. The anti-neoplastic activity of the described substances can be used for prophylactic, adjunct, palliative, and curative treatment of solid tumors, leukemic illnesses and lymphomas as well as for decreasing or preventing metastasis formation in humans and animals. The therapeutic use is possible in the following illnesses for example: gynecological tumors, such as of the uterus or the vagina, ovarian carcinomas, testicle tumors, prostate carcinomas, skin cancer, kidney cancer, bladder tumors, esophagus carcinomas, stomach cancer, rectal carcinomas, pancreas carcinomas, thyroid cancer, adrenal tumors, leukemia and lymphomas, such as Hodgkin's disease, tumor illnesses of the CNS, soft-tissue sarcomas, bone sarcomas, benign and malignant mesotheliomas, but especially intestine cancer, liver cancer, breast cancer, bronchial and lung carcinomas, melanomas, acute and chronic leukemias. Thereby, benign papillomatosis tumors are also considered for therapy. The broad activity of the new compounds was tested in vitro on various human tumor cells Thereby, the following IC50 values were obtained for compound Nr.

In another series the test system is HepG2 cells. As to the kind of experiment: Growth inhibition of HepG2 cells, six days of substance incubation, sulforhodamin-B protein determination. The series is classed as cell-based. The conditions noted are these: Homo sapiens, 144 h. On the procedure: as §1
Series [2] concerns freshly isolated lymphocytes. As to the kind of experiment: Immunosuppressing activity: vitality of freshly isolated spleen lymphocytes after 2 days, flow-through cytometry (propidium iodide / 3,3'-dihexyloxacarbocyanin iodide). The series is classed as cell-based. The following applies: Lymphocyte, 48 h; Swiss mouse spleen lymphocytes, vital cells after 2 days, flow-through cytometer. The source says:
Many anti-tumor agents have not only a cytotoxic effect on tumor cells, but also on the blood cell system. This leads to a weakening of the immune defence, which can, in turn, be specifically employed to suppress the rejection reaction after an organ transplantation for example. Therefore, a use of the main compounds, optionally in combination with other compounds effective for these indications is suitable in diseases such as psoriasis or autoimmune diseases. In order to test the possibility for a therapeutic use in illnesses of this type, the substance activity was tested on freshly isolated lymphocytes as follows: […]
The cells were plated at a density of ca. 500,000 cells/well/ml in a 12-well plate, 1 ml doubly concentrated test substance solution was pipetted per well and this was subsequently incubated in a tissue culture incubator at 37° C. and 5% CO2. […] Subsequently, 10,000 cells per each sample were measured on a flow-through cytometer and the percentage amount of vital cells in the population was determined. By means of the dose-response curves, IC50-values were calculated which were also employed in the following Tables for the characterization of the individual substances: […]

Usually IC50 stands for the concentration that inhibits the measured activity by half. The term melting point denotes the temperature of the solid-liquid transition.

As to `O=C(CCc1cccnc1)NCCCCC1CCN(C(c2ccccc2)c2ccccc2)CC1` [Substance 54, N-[4-(1-diphenylmethyl-piperidin-4-yl)-butyl]-3-(pyridin-3-yl)-propionamide], the IC50 in series [1] (MCF7, cell line MCF-7, ER-positive mammacarcinoma) came out at 80 nM; in series [1] (cell line HT-29, colon carcenoma), 80 nM; in series [1] (cell line HepG2, hepatocellular carcinoma), 20 nM; in series [1] (cell line Namalwa, Burkitt's lymphoma) it was 50 nM; in series [1] (cell line Saos-2, osteosarcoma), 20 nM; in series [1] (cell line THP-1, monocytic leukemia), 30 nM. For the same compound, the IC50 is 20 nM with HepG2 cells and 3 nM in series [2].
In turn, `CCN(CCCCC1CCN(C(c2ccccc2)c2ccccc2)CC1)C(=O)CCc1cccnc1` [Substance 68, N-[4-(1-diphenylmethyl-piperidin-4-yl)-butyl]-N-ethyl-3-(pyridin-3-yl)-propionamide] came in with a melting point of 72 to 74 °C.
Take `O=C(COc1cccnc1)NCCCCC1CCN(C(c2ccccc2)c2ccccc2)CC1` [Substance 84, N-[4-(1-diphenylmethyl-piperidin-4-yl)-butyl]-2-(pyridin-3-yloxy)-acetamide]: the melting point lay within 103 to 105 °C. In the series on HepG2 cells, 80 nM corresponded to half-maximal inhibition (IC50).
As to `O=C(CCc1cccnc1)NCCCCCC1CCN(C(c2ccccc2)c2ccccc2)CC1` [Substance 101, N-[5-(1-diphenylmethyl-piperidin-4-yl)-pentyl]-3-(pyridin-3-yl)-propionamide], the melting point is 112 to 114 °C. For the same compound, in the series on HepG2 cells, 30 nM corresponded to half-maximal inhibition (IC50).
In turn, `O=C(CCc1cccnc1)NCCCCNC(=O)C1CCCN(C(c2ccccc2)c2ccccc2)C1` (stereo not drawn) [Substance 106, N-[4-(1-diphenylmethyl-piperidin-3-yl-carbonylamino)-butyl]-3-(pyridin-3-yl)-propionamide] yielded a melting point of 159 to 161 °C.
Take `O=C(CCc1cccnc1)NCCCCC1CCN(C(=O)c2ccccc2)CC1` [Substance 162, N-[4-(1-benzoylpiperidin-4-yl)-butyl]-3-(pyridin-3-yl)-propionamide]: the melting point was 72 to 74 °C.

Source of the values: patent publication US20030162972A1, “Pyridyl alkane acid amides as cytostatics and immunosupressives” (Klinge Pharma GmbH, priority 1996, published 2003).
